Key:
[1] = CC50 assay (CellTiter-Glo) in Huh-7 HCV replicon cells; format: cell-based; details: human, Table 2, 3 days incubation
In short: (§1)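 Huh-7 cells carrying HCV replicon (6000/well) incubated with serially diluted compound, 0.5% DMSO final, 3 days at 37° C, 5% CO2. EC50 from luciferase luminescence after 30 min lysis/substrate at room temperature; CC50 from CellTiter-Glo luminescence after 10 min at room temperature.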

[2] = tested on: HCV replicon in human hepatoma Huh-7 cell line; assay: Anti-HCV replicon assay, EC50 (luciferase luminescence); format: cell-based; details: Hepatitis C virus, Huh-7, 72 h
In short: as §1

C[C@@H](Nc1nc(O[C@@H]2C[C@@H]3C[C@@H]3C2)c2nc(C#CC3CC3)ccc2n1)c1ccc(S(N)(=O)=O)cc1 [Example 299, 4-((R)-1-(4-((1S,3r,5R)-bicyclo [3.1.0]hexan-3-yloxy)-6-(2-cyclopropylethynyl)pyrido [3,2-d]pyrimidin-2-ylamino)ethyl)benzenesulfonamide]
CC50 at 3 days [1]: 1 to 10 µM
EC50 [2]: < 0.1 µM

C[C@H](Nc1nc(NCc2ccc(-n3cncn3)cc2)nc2ccc(-c3cccc(S(C)(=O)=O)c3)nc12)C(F)(F)F [Example 187, N^2-(4-(1H-1,2,4-triazol-1-yl)benzyl)-6-(3-(methylsulfonyl)phenyl)-N^4-((S)-1,1,1-trifluoropropan-2-yl)pyrido [3,2-d]pyrimidine-2,4-diamine]
CC50 at 3 days [1]: > 10 µM
EC50 [2]: < 0.1 µM

CC(C)Oc1nc(N[C@H](C)c2ccc(S(N)(=O)=O)cc2)nc2ccc(C#CC3CC3)nc12 [Example 304, (R)-4-(1-(6-(2-cyclopropyl-ethynyl)-4-isopropoxypyrido [3,2-d]pyrimidin-2-ylamino)ethyl)benzenesulfonamide]
CC50 at 3 days [1]: > 10 µM
EC50 [2]: < 0.1 µM

NS(=O)(=O)c1cc(CNc2nc(NC3(C(F)(F)F)CC3)c3nc(C#CC4CC4)ccc3n2)cc(C(F)(F)F)c1 [Example 106, 3-((6-(2-cyclopropylethynyl)-4-(1-(trifluoromethyl)cyclo-propylamino)pyrido[3,2-d]pyrimidin-2-ylamino)methyl)-5-(trifluoromethyl)benzene-sulfonamide]
CC50 at 3 days [1]: > 10 µM
EC50 [2]: < 0.1 µM

COc1ccc(-c2ccc3nc(NCc4ccc(S(N)(=O)=O)c(Cl)c4)nc(NCC(F)(F)F)c3n2)cc1S(C)(=O)=O [Example 147, 2-chloro-4-((6-(4-methoxy-3-(methylsulfonyl)phenyl)-4-(2,2,2-trifluoroethylamino)pyrido[3,2-d]pyrimidin-2-ylamino)methyl)benzene-sulfonamide]
CC50 at 3 days [1]: > 10 µM
EC50 [2]: < 0.1 µM

c1ncn(-c2ccc(CNc3nc(C4CC4)c4nc(-c5ccc(OC6CC6)nc5)ccc4n3)cc2)n1 [Example 267, N-(4-(1H-1,2,4-triazol-1-yl)benzyl)-6-(6-cyclopropoxy-pyridin-3-yl)-4-cyclopropyl-pyrido[3,2-d]pyrimidin-2-amine]
CC50 at 3 days [1]: > 10 µM
EC50 [2]: 0.1 to 0.25 µM

CS(=O)(=O)c1cccc(-c2ccc3nc(NCc4ccc(-n5ccnc5)cc4)nc(NCC(F)(F)F)c3n2)c1 [Example 193, N^2-(4-(1H-imidazol-1-yl)benzyl)-6-(3-(methylsulfonyl)phenyl)-N^4-(2,2,2-trifluoroethyl) pyrido[3,2-d]pyrimidine-2,4-diamine]
CC50 at 3 days [1]: > 10 µM
EC50 [2]: < 0.1 µM

C[C@@H](Nc1nc(OC2CCC2)c2nc(-c3ccc(OC4CC4)nc3)ccc2n1)c1ccc(S(N)(=O)=O)cc1 [Example 252, 4-((R)-1-(4-cyclobutoxy-6-(6-cyclopropoxypyridin-3-yl)pyrido[3,2-d]pyrimidin-2-ylamino)ethyl)benzene-sulfonamide]
CC50 at 3 days [1]: 1 to 10 µM
EC50 [2]: < 0.1 µM

C[C@H](Nc1nc(NCc2ccc(S(N)(=O)=O)cc2)nc2ccc(C#CC3CC3)nc12)C(F)(F)F [Example 290, (S)-4-((6-(2-cyclopropyl-ethynyl)-4-(1,1,1-trifluoro-propan-2-ylamino)pyrido [3,2-d]pyrimidin-2-ylamino)methyl)benzene-sulfonamide]
CC50 at 3 days [1]: 1 to 10 µM
EC50 [2]: < 0.1 µM

C[C@H](Cn1cncn1)Nc1nc(NCC(F)(F)F)c2nc(-c3ccc(OC4CC4)nc3)ccc2n1 [Example 258, N^2-((R)-1-(1H-1,2,4-triazol-1-yl)propan-2-yl)-6-(6-cyclo-propoxypyridin-3-yl)-N^4-(2,2,2-trifluoroethyl)pyrido[3,2-d] pyrimidine-2,4-diamine]
CC50 at 3 days [1]: > 10 µM
EC50 [2]: < 0.1 µM

CC(C)Oc1ccc(-c2ccc3nc(N[C@H](C)Cn4cncn4)nc(NCC(F)(F)F)c3n2)cn1 [Example 241, N^2-((R)-1-(1H-1,2,4-triazol-1-yl)propan-2-yl)-6-(6-isopropoxypyridin-3-yl)-N^4-(2,2,2-trifluoroethyl)pyrido [3,2-d]pyrimidine-2,4-diamine]
CC50 at 3 days [1]: > 10 µM
EC50 [2]: < 0.1 µM

CCOc1ccc(-c2ccc3nc(NCc4ccc(-n5cncn5)cc4)nc(NCC(F)(F)F)c3n2)cc1S(N)(=O)=O [Example 243, 5-(2-(4-(1H-1,2,4-triazol-1-yl)benzylamino)-4-(2,2,2-trifluoroethylamino)pyrido [3,2-d]pyrimidin-6-yl)-2-ethoxybenzenesulfonamide]
CC50 at 3 days [1]: > 10 µM
EC50 [2]: < 0.1 µM

CS(=O)(=O)c1cc(-c2ccc3nc(NCc4ccc(-n5cncn5)cc4)nc(NCC(F)(F)F)c3n2)ccc1OC(F)F [Example 175, N^2-(4-(1H-1,2,4-triazol-1-yl)benzyl)-6-(4-(difluoro-methoxy)-3-(methylsulfonyl)phenyl)-N^4-(2,2,2-trifluoroethyl) pyrido[3,2-d]pyrimidine-2,4-diamine]
CC50 at 3 days [1]: > 10 µM
EC50 [2]: < 0.1 µM

COc1ccc(-c2ccc3nc(NCc4cccc(S(C)(=O)=O)c4)nc(NC4(C(F)(F)F)CC4)c3n2)cc1S(C)(=O)=O [Example 35, N^2-(3-(methylsulfonyl)benzyl)-6-(4-methoxy-3-(methylsulfonyl)phenyl)-N^4-(1-(trifluoromethyl)cyclopropyl) pyrido[3,2-d]pyrimidine-2,4-diamine]
CC50 at 3 days [1]: 1 to 10 µM
EC50 [2]: < 0.1 µM

COc1ccc(-c2ccc3nc(NCc4ccc(S(N)(=O)=O)cc4)nc(NCC(F)(F)F)c3n2)cc1S(=O)(=O)C(F)(F)F [Example 165, 4-((6-(4-methoxy-3-(trifluoromethylsulfonyl)phenyl)-4-(2,2,2-trifluoroethylamino)pyrido[3,2-d]pyrimidin-2-ylamino)methyl)benzene-sulfonamide]
CC50 at 3 days [1]: 1 to 10 µM
EC50 [2]: < 0.1 µM

FC(F)(F)CNc1nc(NCc2ccc(-n3cncn3)cc2)nc2ccc(-c3ccc(OC4CC4)nc3)nc12 [Example 246, N^2-(4-(1H-1,2,4-triazol-1-yl)benzyl)-6-(6-cyclopropoxy-pyridin-3-yl)-N^4-(2,2,2-trifluoroethyl)pyrido[3,2-d] pyrimidine-2,4-diamine]
CC50 at 3 days [1]: > 10 µM
EC50 [2]: < 0.1 µM

C[C@H](Cn1cncn1)Nc1nc(NCC(F)(F)F)c2nc(-c3ccc(OC(F)F)c(S(C)(=O)=O)c3)ccc2n1 [Example 206, N^2-((R)-1-(1H-1,2,4-triazol-1-yl)propan-2-yl)-6-(4-(difluoromethoxy)-3-(methylsulfonyl)phenyl)-N^4-(2,2,2-trifluoroethyl) pyrido[3,2-d]pyrimidine-2,4-diamine]
CC50 at 3 days [1]: > 10 µM
EC50 [2]: 0.25 to 2 µM

COc1ccc(-c2ccc3nc(NCc4ccc(S(N)(=O)=O)cc4)nc(NC(C(F)(F)F)C(F)(F)F)c3n2)cc1S(C)(=O)=O [Example 151, 4-((4-(1,1,1,3,3,3-hexafluoropropan-2-ylamino)-6-(4-methoxy-3-(methylsulfonyl)phenyl)pyrido[3,2-d]pyrimidin-2-ylamino)methyl)benzene-sulfonamide]
CC50 at 3 days [1]: 1 to 10 µM
EC50 [2]: < 0.1 µM

COc1ccc(-c2ccc3nc(N[C@H](C)c4ccc(S(N)(=O)=O)cc4)nc(NCC(F)(F)F)c3n2)cc1S(C)(=O)=O [Example 145, 4-((R)-1-(6-(4-methoxy-3-(methylsulfonyl)phenyl)-4-(2,2,2-trifluoroethylamino)pyrido[3,2-d]pyrimidin-2-ylamino)ethyl)benzene-sulfonamide]
CC50 at 3 days [1]: 1 to 10 µM
EC50 [2]: 0.1 to 0.25 µM

Cc1nc(C)n(-c2ccc(CNc3nc(OC4(C)CC4)c4nc(-c5cccc(S(C)(=O)=O)c5)ccc4n3)cc2)n1 [Example 203, N-(4-(3,5-dimethyl-1H-1,2,4-triazol-1-yl)benzyl)-4-(1-methylcyclopropoxy)-6-(3-(methylsulfonyl)phenyl)pyrido [3,2-d]pyrimidin-2-amine]
CC50 at 3 days [1]: > 10 µM
EC50 [2]: < 0.1 µM

CC#Cc1ccc2nc(N[C@H](C)c3ccc(S(N)(=O)=O)cc3)nc(OC3(C)CC3)c2n1 [Example 302, (R)-4-(1-(4-(1-methylcyclo-propoxy)-6-(prop-1-ynyl)pyrido[3,2-d]pyrimidin-2-ylamino)ethyl)benzene-sulfonamide]
CC50 at 3 days [1]: > 10 µM
EC50 [2]: < 0.1 µM

C[C@H](Cn1cncn1)Nc1nc(NCC(F)(F)F)c2nc(-c3cccc(S(C)(=O)=O)c3)ccc2n1 [Example 168, N^2-((R)-1-(1H-1,2,4-triazol-1-yl)propan-2-yl)-6-(3-(methylsulfonyl)phenyl)-N^4-(2,2,2-trifluoroethyl)pyrido [3,2-d]pyrimidine-2,4-diamine]
CC50 at 3 days [1]: > 10 µM
EC50 [2]: 0.1 to 0.25 µM

NS(=O)(=O)c1cc(F)cc(CNc2nc(NC3(C(F)(F)F)CC3)c3nc(-c4ccc(F)cc4)ccc3n2)c1 [Example 115, 3-fluoro-5-((6-(4-fluorophenyl)-4-(1-(trifluoromethyl)cyclopropyl-amino)pyrido[3,2-d]pyrimidin-2-ylamino)methyl)benzene-sulfonamide]
CC50 at 3 days [1]: 1 to 10 µM
EC50 [2]: < 0.1 µM

COc1ccc(-c2ccc3nc(NCc4ccc(S(N)(=O)=O)cc4)nc(NC4(C#N)CC4)c3n2)cn1 [Example 132, 4-((4-(1-cyanocyclopropylamino)-6-(6-methoxypyridin-3-yl)pyrido[3,2-d]pyrimidin-2-ylamino)methyl)benzene-sulfonamide]
CC50 at 3 days [1]: > 10 µM
EC50 [2]: < 0.1 µM

C[C@@H](Nc1nc(NCC(F)(F)F)c2nc(C#CC(C)(C)C)ccc2n1)c1ccc(S(N)(=O)=O)cc1 [Example 285, (R)-4-(1-(6-(3,3-dimethylbut-1-ynyl)-4-(2,2,2-trifluoroethyl-amino)pyrido[3,2-d]pyrimidin-2-ylamino)ethyl)benzene-sulfonamide]
CC50 at 3 days [1]: > 10 µM
EC50 [2]: 0.25 to 2 µM

C#Cc1ccc2nc(N[C@H](C)c3ccc(S(N)(=O)=O)cc3)nc(NCC(F)(F)F)c2n1 [Example 284, (R)-4-(1-(6-ethynyl-4-(2,2,2-trifluoroethylamino)pyrido [3,2-d]pyrimidin-2-ylamino)ethyl)benzenesulfonamide]
CC50 at 3 days [1]: > 10 µM
EC50 [2]: < 0.1 µM

— patent US8536187B2 (Gilead Sciences, Inc., priority 2008, dated 2013)
